# PMC4718506 (Bioscience Reports, 2016)
# Where no end group is shown, it is not given here.
# Columns and labels:
# [1] = system: glucagon receptor mutant Asp-385^7.41–Glu; conditions: Asp-385^7.41–Glu glucagon receptor; cited from earlier work
# Excerpt: […]. These Arg-310^5. ...
# GLP-1R [2] = conditions: truncation of first two residues of GLP-1; cited from earlier work
# GLP-1R [3] = conditions: truncation of first two residues of GLP-1; cited from earlier work; remark: listed apart in the source
# [4] = system: glucagon receptor with upper half replaced by GLP-1R; conditions: upper half of glucagon receptor replaced with GLP-1R; cited from earlier work
# glucagon receptor = conditions: cited from earlier work
# Excerpt: (§1) This putative salt bridge may play an important structural role, the disruption of which could result in a disturbance of the agonist-binding site formed by other residues in ECL2.
# [5] = system: GLP-1R mutant Arg-190^2.60–Ala; conditions: cited from earlier work
# [6] = system: GLP-1R mutant Arg-190^2.60–Ala; conditions: cited from earlier work; remark: listed apart in the source
# [7] = system: glucagon receptor with region (ECL2 and neighbouring helical regions) replaced by GLP-1R equivalent; conditions: ECL2 and neighbouring helical regions replaced with GLP-1R equivalent; cited from earlier work
# Excerpt: as §1
# [8] = system: hGLP-1R double-Ala mutants (four sites, TM4/ECL2/TM5); test: Radioligand binding, double-Ala scan; design: species or system human; conditions: 75 pM 125I-GLP-1, >10,000-fold unlabelled GLP-1 competitor; four sites of double-Ala scan; data in Table S2
# Procedure: Flp-In HEK293 cells, cultured to confluence on five 160-cm^2 Petri dishes (pre-coated with poly-D-lysine), were washed with PBS, followed by the addition of 15 ml of ice-cold sterile double distilled water to induce cell lysis. Following 5 min incubation on ice, the ruptured cells were thoroughly washed with ice-cold PBS before being scraped from the plates and pelleted by centrifugation in a bench-top centrifuge (13,000 g for 30 min). The crude membrane pellet was resuspended in 1 ml membrane-binding solution (MBS; 50 mM HEPES pH 7.4, 2.5 mM CaCl2, 5 mM MgCl2, 0.2% BSA) and forced through a 23G needle. Aliquots (0.1 ml) were snap-frozen in liquid nitrogen and stored at −70°C. When required for assay, membranes were slowly thawed on ice before diluting to a concentration that gave total radioligand binding of <10% total counts added. […] Assays were carried out for 1 h in MultiScreen 96-well Filtration Plates (Glass fibre filters, 0.65 μm pore size, Millipore) pre-soaked in 1% non-fat milk/PBS. After the incubation, membrane-associated radioligand was harvested by transferring the assay mixture to the filtration plate housed in a vacuum manifold. […]
# Binding and cAMP assays were carried out with triplicate values at each ligand concentration and with each assay being repeated at least three times. The resultant data were analysed using Prism 6 (GraphPad Software Inc.).
substance,measurement,setting,value
glucagon: native glucagon,effect on affinity and potency,[1],reducing the affinity and potency
"GLP-1(9–36)amide: Truncation of the first two residues of GLP-1 (EGTFTSDVSSYLEGQAAKEFIAWLVKGR-NH2; UniProt P01275 100-127, looked up, fragment)",efficacy,GLP-1R [2],substantial loss of efficacy
same,affinity,GLP-1R [3],reduced affinity
Glu-3–glucagon: native glucagon has Gln-3*,affinity and potency,[4],could be rescued
same,affinity and potency,glucagon receptor,reduced affinity and potency
oxyntomodulin: has Gln at the 3rd position rather than Glu,effect on affinity,[5],did not reduce oxyntomodulin affinity or efficacy
same,effect on efficacy,[6],did not reduce oxyntomodulin affinity or efficacy
Ala-2–glucagon: Ser-2* of glucagon replaced (equivalent of Ala-8* in GLP-1),effect on affinity and potency,[1],improve the affinity and potency
"Ser-12–glucagon: Lys-12* in native glucagon, equivalent of Ser-18* in GLP-1",affinity and potency,[7],could be rescued
same,affinity and potency,glucagon receptor,reduced affinity and potency
"^125I-GLP-1: radioligand, kind gift of Novo Nordisk",specific binding,[8],reduced specific binding
